Results: patent US9802949B2, “Fused ring compounds as hepatitis C virus inhibitors, pharmaceutical compositions and uses thereof” (SUNSHINE LAKE PHARMA CO., LTD., priority 2012, dated 2017)
pEC50: −log10 of the molar value.

What was measured:
HCV GT1a replicon = test: HCV replicon assay (Huh-7 cells stably transfected with HCV GT1a replicon; luciferase or NEO gene qPCR readout); assay type: cell-based; details: Hepatitis C virus, HCV 1a genotype replicon, 72 hours
Method: (§1) HCV Replicon System was utilized as a screening model in the present disclosure to evaluate the antivirus effects of the compounds disclosed herein against HCV. HCV Replicon assay was first described in Science, 1999, 285 (5424), 110-3. […] To determine the potential anti-HCV effects of the test compounds, luciferase assay and antibiotic Neomycin resistance gene were tested according to the method described in Science. 1999 Jul. 2; 285 (5424), 110-3 and J. Virol. 2003 March; 77 (5), 3007-19.
(§2) In a word, the compounds disclosed herein were tested by using human hepatic carcinoma cell line Huh-7 which is transfected stably with HCV GT1a, GT1b or GT2a replicon respectively, and resistant cells of Y93H, L31F, P32L or I302V and wild-type cells HCV 1b. HCV Replicon System disclosed herein contains G418 resistance gene NEO and Luciferase Reporter Gene, and the level of HCV replication in host cells is detected and characterized by the expression level of the NEO gene or Luciferase Reporter Gene, so the effects of the compounds herein inhibit HCV replication can be evaluated in this system. In this article, a real-time quantitative polymerase chain reaction (qPCR) method was used to detect NEO gene expression level, and chemiluminescence method was used to test Luciferase Reporter Gene expression level.
(§3) 1. Test Method for Measuring EC50 of the Compounds Based on Luciferase Assay.
(§4) The Huh-7 cells transfected with HCV replicons system were seeded into 96-well plates (8,000 cells in 125 μL/well) respectively; each test compound was diluted to desired concentration using 5-fold serial dilutions protocol, 10 doses in duplicate, and added to wells with POD™ 810 Plate Assembler. The plates were incubated in a CO2 incubator for 72 hours; after that, 40 μL of Luciferase assay substrate (Promega Bright-Glo) was added to each well, and detected by a chemiluminescence detection system (Topcount Microplate Scintillation and Luminescence Counter) 5 minutes later; the EC50 (half-maximal effective concentration, concentration for 50% of maximal effect) values of test compounds were analyzed by GraphPad Prism software. In this paper, experiments were repeated twice and set the wells without compounds as negative control.
(§5) 2. Test Method for Measuring EC50 of the Compounds by Detecting Antibiotic G418 Resistance Gene NEO Gene.
(§6) The Huh-7 cells transfected with HCV replicons system were seeded into 96-well plates (8,000 cells in 125 μL/well) respectively; each test compound was diluted to desired concentration using 5-fold serial dilutions protocol, 10 doses in duplicate, and added to each well with POD™ 810 Plate Assembler; the cells were incubated in a CO2 incubator for 72 hours; and detected the expression level of the NEO gene expression with real-time quantitative PCR later; the EC50 (half-maximal effective concentration, concentration for 50% of maximal effect) values of test compounds were analyzed by GraphPad Prism software, respectively. In this paper, experiments were repeated twice and set the wells without compounds as negative control.

HCV GT1b replicon = test: HCV replicon assay (Huh-7 cells stably transfected with HCV GT1b replicon; luciferase or NEO gene qPCR readout); assay type: cell-based; details: Hepatitis C virus, HCV 1b genotype replicon, 72 hours
Method: as §1, §2, §3, §4, §5, §6

Row | SMILES | pEC50 (HCV GT1a replicon) | pEC50 (HCV GT1b replicon)
1 | COC(=O)N[C@H](C(=O)N1CC(C)(C)C[C@H]1c1ncc(-c2ccc(-c3ccc(-c4ccc5nc([C@@H]6CC(C)(C)CN6C(=O)[C@@H](NC(=O)OC)C(C)C)[nH]c5c4)c4c3C3CCC3C4)cc2)[nH]1)C(C)C (stereo partly drawn) [Example 15] | 9.42 | 9.98
2 | CC(C)[C@H](NC(=O)Oc1ccccc1)C(=O)N1CC(C)(C)C[C@H]1c1ncc(-c2ccc(-c3ccc(-c4ccc5nc([C@@H]6CC(C)(C)CN6C(=O)[C@@H](NC(=O)Oc6ccccc6)C(C)C)[nH]c5c4)c4c3C3CCC3C4)cc2)[nH]1 (stereo partly drawn) [Example 16] | 8.59 | 9.06
3 | COC(=O)N[C@H](C(=O)N1CC2(CC2)C[C@H]1c1ncc(-c2ccc(-c3ccc(-c4ccc5nc([C@@H]6CC7(CC7)CN6C(=O)[C@@H](NC(=O)OC)C(C)C)[nH]c5c4)c4c3C3CCC3C4)cc2)[nH]1)C(C)C (stereo partly drawn) [Example 17] | 10.21 | 10.11
4 | COC(=O)N[C@H](C(=O)N1C2CC2C[C@H]1c1ncc(-c2ccc(-c3ccc(-c4ccc5nc([C@@H]6CC7CC7N6C(=O)[C@@H](NC(=O)OC)C(C)C)[nH]c5c4)c4c3C3CCC3C4)cc2)[nH]1)C(C)C (stereo partly drawn) [Example 18] | 10.08 | 10.52
5 | COC(=O)N[C@H](C(=O)N1[C@@H]2CC[C@@H](C2)[C@H]1c1ncc(-c2ccc(-c3ccc(-c4ccc5nc([C@@H]6[C@H]7CC[C@H](C7)N6C(=O)[C@@H](NC(=O)OC)C(C)C)[nH]c5c4)c4c3C3CCC3C4)cc2)[nH]1)C(C)C (stereo partly drawn) [Example 19] | 9.66 | 10.36
6 | COC(=O)N[C@H](C(=O)N1CC2(C[C@H]1c1ncc(-c3ccc(-c4ccc(-c5ccc6nc([C@@H]7CCCN7C(=O)[C@@H](NC(=O)OC)C(C)C)[nH]c6c5)c5c4C4CCC4C5)cc3)[nH]1)OCCO2)C(C)C (stereo partly drawn) [Example 20] | 9.37 | 10.44
7 | COC(=O)N[C@H](C(=O)N1CC(C)=C[C@H]1c1ncc(-c2ccc(-c3ccc(-c4cnc([C@@H]5C=C(C)CN5C(=O)[C@@H](NC(=O)OC)C(C)C)[nH]4)c4c3C3CCC3C4)cc2)[nH]1)C(C)C (stereo partly drawn) [Example 21] | 10.17 | 10.82
8 | COC(=O)N[C@H](C(=O)N1CCC[C@H]1c1nc(-c2ccc(-c3ccc(-c4ccc5nc([C@@H]6CCCN6C(=O)[C@@H](NC(=O)OC)C(C)C)[nH]c5c4)c4c3C3CCC3C4)c3c2CCC3)c[nH]1)C(C)C (stereo partly drawn) [Example 22] | 9.63 | 10.09
9 | COC(=O)N[C@H](C(=O)N1CCC[C@H]1c1ncc(-c2ccc(-c3ccc(-c4ccc5nc([C@@H]6CCCN6C(=O)[C@@H](NC(=O)OC)C(C)C)[nH]c5c4)c4c3C3CCC3C4)c3ccccc23)[nH]1)C(C)C (stereo partly drawn) [Example 23] | 9.35 | 10.30
10 | COC(=O)N[C@H](C(=O)N1CCC[C@H]1c1ncc(-c2ccc(-c3ccc(-c4ccc5nc([C@@H]6CCCN6C(=O)[C@@H](NC(=O)OC)C(C)C)[nH]c5c4)c4c3CC3CCC43)c3cnoc23)[nH]1)C(C)C (stereo partly drawn) [Example 24] | 9.68 | 9.93
11 | COC(=O)N[C@H](C(=O)N1CCC[C@H]1c1ncc(-c2ccc(-c3ncc(-c4ccc5nc([C@@H]6CCCN6C(=O)[C@@H](NC(=O)OC)C(C)C)[nH]c5c4)c4c3C3CCC3C4)cc2)[nH]1)C(C)C (stereo partly drawn) [Example 25] | 10.19 | 10.49
12 | COC(=O)N[C@H](C(=O)N1CCC[C@H]1c1ncc(-c2ccc(-c3sc(-c4ccc5nc([C@@H]6CCCN6C(=O)[C@@H](NC(=O)OC)C(C)C)[nH]c5c4)c4c3C3CCC3C4)cc2)[nH]1)C(C)C (stereo partly drawn) [Example 26] | 9.08 | 10.32
13 | COC(=O)N[C@H](C(=O)N1CCC[C@H]1C(=O)Nc1ccc(-c2ccc(-c3ccc4nc([C@@H]5CCCN5C(=O)[C@@H](NC(=O)OC)C(C)C)[nH]c4c3)c3c2CC2CCC32)cc1)C(C)C (stereo partly drawn) [Example 27] | 8.79 | 9.17
14 | COC(=O)N[C@H](C(=O)N1CCC[C@H]1c1ncc(-c2ccc(-c3ccc(-c4ccc5nc([C@@H]6CCCN6C(=O)[C@@H](NC(=O)OC)C(C)C)[nH]c(=O)c5c4)c4c3C3CC(F)(F)C3C4)cc2)[nH]1)C(C)C (stereo partly drawn) [Example 28] | 10.66 | 11.10
15 | COC(=O)N[C@H](C(=O)N1CCC[C@H]1C1=Nc2cc(-c3ccc(C#Cc4cnc([C@@H]5CCCN5C(=O)[C@@H](NC(=O)OC)C5CCCCC5)[nH]4)c4c3CC3C(=O)CC43)ccc2C(C)(C)N1)C1CCCCC1 (stereo partly drawn) [Example 29] | 8.12 | 9.51
16 | COC(=O)N[C@H](C(=O)N1CCC[C@H]1c1cc(=O)c2cc(-c3ccc(-c4ccc(-c5cnc([C@@H]6CCCN6C(=O)[C@@H](NC(=O)OC)c6ccccc6)[nH]5)cc4)c4c3C3(C)CCC3C4)ccc2[nH]1)c1ccccc1 (stereo partly drawn) [Example 30] | 9.68 | 10.04
17 | CC[C@H](C)[C@H](NC(=O)OC)C(=O)N1CCC[C@H]1C1=Nc2ccc(-c3ccc(-c4ccc5nc([C@@H]6CCCN6C(=O)[C@@H](NC(=O)OC)C(C)C)[nH]c5c4)c4c3CC3CCCC43)cc2S(=O)(=O)N1 (stereo partly drawn) [Example 31] | 10.08 | 10.46
18 | COC(=O)N[C@H](C(=O)N1CCCC1c1nc2ccc(-c3ccc(-c4ccc5nc([C@@H]6CCCN6C(=O)[C@@H](NC(=O)OC)C(C)C)[nH]c5c4)c4c3C3C(=O)CCC3C4)cc2[nH]1)C(C)C (stereo partly drawn) [Example 32] | 10.20 | 10.59
19 | COC(=O)N[C@H](C(=O)N1CCC[C@H]1c1ncc(-c2ccc(-c3ccc(-c4cnc([C@@H]5CCCN5C(=O)[C@@H](NC(=O)OC)C(C)C)[nH]4)c4c3C3CCCC3C4C)cc2)[nH]1)C(C)C (stereo partly drawn) [Example 33] | 10.09 | 10.52
20 | COC(=O)N[C@H](C(=O)N1CCC[C@H]1c1ncc(-c2ccc(-c3ccc(-c4cnc([C@@H]5CCCN5C(=O)[C@@H](NC(=O)OC)C(C)C)[nH]4)c4c3C3CC(=O)CC3C4)cc2)[nH]1)C(C)C (stereo partly drawn) [Example 34] | 10.12 | 10.66
21 | COC(=O)NC(C(=O)N1CCCC1c1ncc(-c2ccc(-c3ccc(-c4cnc(C5CCCN5C(=O)C(NC(=O)OC)C(C)C)[nH]4)c4c3C3CCC3C4)cc2)[nH]1)C(C)C (stereo not drawn) [Example 35] | 9.26 | 11.15
22 | COC(=O)NC(C(=O)N1CCCC1c1nc2ccc(-c3ccc(-c4ccc(-c5cnc(C6C7CCC(C7)N6C(=O)C(NC(=O)OC)C(C)C)[nH]5)cc4)c4c3C3CCC3C4)cc2[nH]1)C(C)C (stereo not drawn) [Example 36] | 9.03 | 11.00
23 | COC(=O)NC(C(=O)N1CCCC1c1nc2ccc(-c3ccc(-c4ccc(-c5cnc(C6CC7CC7N6C(=O)C(NC(=O)OC)C(C)C)[nH]5)cc4)c4c3CC3CCC43)cc2[nH]1)C(C)C (stereo not drawn) [Example 37] | 10.20 | 10.80
24 | COC(=O)NC(C(=O)N1CCCC1c1ncc(-c2ccc(-c3ccc(-c4ccc5nc(C6CCCN6C(=O)C(NC(=O)OC)C(C)C)[nH]c5c4)c4c3C3CCC3C4)cc2)[nH]1)C(C)C (stereo not drawn) [Example 38] | 10.24 | 10.89
